# Legend:
# [1] = system: pseudotyped VSVs harboring SARS-CoV S (SARS-Spp); assay: microbe, parasite or virus in culture; assay type: cell-based; conditions: for EC50: Severe acute respiratory syndrome coronavirus
# [2] = system: pseudotyped VSVs harboring MERS-CoV S (MERS-Spp); assay type: cell-based
Structure (SMILES),EC50 [1],EC50 ([1]; Huh-7),EC50 ([1]; MA104),inhibition of SARS-Spp entry [1],inhibition of MERS-Spp entry [2]
"CN1CCN([C@@H](c2ccccc2)c2ccc(Cl)cc2)CC1 [(S)-CCZ, (S)-chlorcyclizine]",4.59 µM,3.21 µM,6.91 µM,,
"CCN(CC)CCCC(C)Nc1ccnc2cc(Cl)ccc12 (stereo not shown) [Chloroquine, chloroquine]",,,,inhibited,reduced
"CCN1CCN(C(c2ccc(Cl)cc2)c2ccc(Cl)cc2)CC1 [Dichlorcyclizine, dichlorcyclizine]",5.76 µM,0.87 µM,9.92 µM,,
CCOC(=O)[C@H]1O[C@@H]1C(=O)N[C@@H](CC(C)C)C(=O)NCCC(C)C [E-64d],,,,inhibited,reduced
"Cc1cc(-c2nc(CN3CCC(C(=O)NCCCN4C[C@H](C)C[C@H](C)C4)CC3)co2)ccc1F [Fluoxazolevir, fluoxazolevir]",1.46 µM,1.75 µM,6.49 µM,,
